Measured values as given in patent publication US20250352534A1 (Tesaro, Inc., priority 2022, published 2025).
≈ marks a conversion by molar mass, not a printed value. Read-outs that look alike come from different tables or passages of the source. Blank lines part the entries; values can stand above or below the molecule they belong to.

Experiments:
PAR (PARP inhibition) = conditions: 17/22 patients
Text: For PD analysis, intraoperatively-collected gadolinium-enhancing tumor tissue will be sectioned into 4 similarly-sized tissue portions. Two tissue specimens will be exposed to 10 Gy of IR using a RAD2000 device and two specimens will be sham irradiated (non-irradiated). One pair of sham control and 10 Gy radiated tissue will be fixed in formalin solution for FFPE slides. The other pair will be snap-frozen for PAR ELISA assay.
A ‘functional’ PD assay examining PAR activity in the setting of ex vivo irradiation will serve as a secondary endpoint in this protocol. In the Ivy Center's CLIA-certified PD Core, FFPE embedded tumor tissue from both ex vivo irradiated and non-irradiated to assess changes in PAR, cleaved caspase 3, γH2AX and Ki67 using immunohistochemistry (IHC) assays. Alternatively, ELISA assays to quantify PAR levels will be performed using frozen lysates from the second pair of control and irradiated samples.
Evidence of PARP inhibition was assessed by 10 Gy ex vivo irradiation of surgical tissue and quantification of PARylation compared to non-irradiated control tissue.
PARP inhibition was assessed by quantification of PAR induction after 10 Gy ex vivo irradiation in surgical tissue compared to non-irradiated control tissue.

[1] = brain penetration in mouse brain metastatic tumor model (LC-MS, MALDI IMS); format: in vivo, mice; conditions: for MALDI IMS Brain Section Median, adjusted free concentration / MALDI IMS Brain Section Median, total concentration / Bulk Brain Homogenate Avg, adjusted free concentration / Bulk Brain Homogenate Avg, total concentration / concentration at 2 h: 2 hr post final dose; for Bulk Brain Homogenate Avg, adjusted free concentration / Bulk Brain Homogenate Avg, total concentration: LC-MS; for concentration at 2 h: plasma, po QD 5 days, niraparib 35 mg/kg, olaparib 50 mg/kg, read-out: Terminal Plasma Avg, total concentration
Text: Female mice (CrTac:NCr-Foxnlnu; 6 w/o) received 2.5E5 luciferase transfected human breast cancer line (MDA 231-BRM2-831) via intracardiac injection. Mice were imaged twice/week using bioluminescence imaging (BLI) to monitor tumor growth. […] Tissue collected between each imaging plane was homogenized for LC-MS bioanalysis.

[2] = system: cancer cells with mutant BRCA-1 and BRCA-2; conditions: read-out: inhibition of proliferation CC50; cited from earlier work
[3] = brain penetration in healthy Rhesus macaque monkeys (LC-MS, MALDI IMS); format: in vivo; conditions: for Bulk Brain Homogenate, adjusted free concentration / Bulk Brain Homogenate, total concentration: LC-MS; for Terminal CSF / Terminal Plasma, adjusted free concentration: at necropsy; for Kp uu: male, rhesus monkey, brain homogenate / plasma, oral
Protocol: Pre-dose blood was collected daily and terminal blood, cerebrospinal fluid (CSF), and brain tissue was collected at necropsy. […] Blood, CSF, and bulk homogenates of brain tissue were analyzed by LC-MS bioanalysis.

P-gp (Mdr1-a) = test: in vivo; conditions: male, rat, brain / plasma, intravenous, P-gp knock-out rat
Protocol: (§1) At least three days prior to the start of the study, six male rats per group (total 24 rats) received surgically implanted femoral vein and carotid artery catheters for infusion of the test molecule and blood sampling, respectively. Doses were filtered prior to administration and the actual dose administered to the animals was quantified. All PK parameters were calculated based on the actual dose administered to each animal. Animals received an intravenous bolus loading dose followed by a constant intravenous infusion to maintain steady state of drug level. At the end of the infusion, animals were euthanized and brain tissues were collected. Tissue homogenates were prepared in PBS (1:4 w/v). LC-MS/MS method was used to quantitate drug concentrations. Tissue homogenate concentrations were corrected for test compound contained in residual plasma in the tissue. The tissue-to-plasma ratio was calculated by dividing corrected tissue concentration by steady-state plasma concentration. […] Data are reported as fraction unbound (Fu).

[4] = system: P-gp (Mdr1-a) and BCRP (ABCG2); test: in vivo; conditions: male, rat, brain / plasma, intravenous; for Kp: Brain:plasma (Kp) ratio; for Kp uu: Unbound brain:plasma ratio (Kp, uu)
Protocol: as §1

BCRP (ABCG2) = test: in vivo; conditions: male, rat, brain / plasma, intravenous, BCRP knock-out rat
Protocol: as §1

[5] = system: P-gp (P-glycoprotein/Mdr1-a) and BCRP (ABCG2); test: in vivo
Protocol: as §1

[6] = Phase 0 Arm A tumor pharmacokinetics (LC-MS/MS) in newly-diagnosed GBM patients
Protocol: (§2) The final presurgical dose will be administered 3-5 hours or 8-10 hours before tumor resection. Assignment to time-cohorts will be random. […] In each of the two time-cohorts, tumor PK and PD analyses will be performed at the Ivy Brain Tumor Center.
(§3) For PK analysis, blood, CSF, and brain tumor tissue samples (gadolinium enhancing and non-enhancing) will be collected intraoperatively. Additional blood samples will be obtained on Day 1 pre-dose and on Day 4 (the day of the surgery) at pre-dosing (trough level), 0.5, 1, 2, 4, 6, 9-, 12-, 24-, and 48-hours post-dose.
(§4) Tumor-to-plasma ratios will be calculated. All assays and analyses will be developed, validated, and performed at Ivy Brain Tumor Center.
(§5) Tumor tissue (enhancing and nonenhancing regions), cerebrospinal fluid (CSF), and plasma were collected. […] Evidence of PARP inhibition was assessed by 10 Gy ex vivo irradiation of surgical tissue and quantification of PARylation compared to non-irradiated control tissue.
(§6) Tumor tissue (enhancing and non-enhancing regions), cerebrospinal fluid (CSF), and plasma were collected. […] PARP inhibition was assessed by quantification of PAR induction after 10 Gy ex vivo irradiation in surgical tissue compared to non-irradiated control tissue. A PK ‘trigger’ determined eligibility for the therapeutic phase 2 expansion portion of the study.

clinical = conditions: human, oral
Protocol: as §2, §3, §4, §5, §6

[7] = system: MGMT-unmethylated newly-diagnosed glioblastoma
Text: Participants will continue receiving maintenance treatment until progression of disease, unacceptable toxicity or death, withdrawal of consent, loss to follow-up, or study termination by sponsor.
• 1. […] Expansion: Examine progression-free survival rate measured from time of surgery to date of recurrence.

[8] = clinical safety, Phase 0 and expansion phase Arm A; conditions: for tolerability: glioblastoma patients
Protocol: as §6

in vitro = conditions: rat, brain homogenate
Protocol: as §1

physchem = conditions: aqueous buffer
PARP activity = conditions: read-out: inhibition of PARP activity EC50; whole cell assay; cited from earlier work
[9] = female, CrTac:NCr-Foxnlnu, mouse, oral, BM mice, from bulk brain homogenate and terminal plasma free concentrations
[10] = female, CrTac:NCr-Foxnlnu, mouse, oral, BM (brain metastases) mice
[11] = female, CrTac:NCr-Foxnlnu, mouse, oral, Control mice
[12] = Monkey 1, Day 1, po daily 5 days, niraparib 6 mg/kg, olaparib 10 mg/kg
[13] = Monkey 2, Day 1, po daily 5 days, niraparib 6 mg/kg, olaparib 10 mg/kg
[14] = healthy Rhesus macaque monkeys, five days oral administration
[15] = Unbound brain:plasma ratio (Kp, uu)
[16] = enhancing tumor tissue / plasma
[17] = non-enhancing tumor tissue / plasma

Compound: NC(=O)c1cccc2cn(-c3ccc([C@@H]4CCCNC4)cc3)nc12 [niraparib, (3S)-3-[4-{7-(aminocarbonyl)-2H-indazol-2-yl}phenyl]piperidine]
patients with suppression of PAR levels after ex vivo radiation (PAR (PARP inhibition)): 79%
estimated mean Kp,uu,brain, times higher for niraparib compared to olaparib ([1]; BM mice): 5.6 ×
MALDI IMS Brain Section Median, adjusted free concentration ([1]; BM mice): 80
MALDI IMS Brain Section Median, total concentration ([1]; BM mice): 473
Bulk Brain Homogenate Avg, adjusted free concentration ([1]; BM mice): 91 ng/g
Bulk Brain Homogenate Avg, total concentration ([1]; BM mice): 543 ng/g
MALDI IMS Brain Section Median, adjusted free concentration ([1]; Control mice): 89
MALDI IMS Brain Section Median, total concentration ([1]; Control mice): 532
Bulk Brain Homogenate Avg, adjusted free concentration ([1]; Control mice): 111 ng/g
Bulk Brain Homogenate Avg, total concentration ([1]; Control mice): 658 ng/g
estimated mean Kp,uu,brain, times higher for niraparib compared to olaparib ([1]; control mice): 3.0 ×
Kp uu at 2 h post final dose [1, 9]: 0.18
Kp uu at 2 h ([1]; female, CrTac:NCr-Foxnlnu, mouse, oral, Control mice, from bulk brain homogenate and terminal plasma free concentrations): 0.18
concentration at 2 h [1, 10]: 2540 ng/mL
concentration at 2 h [1, 11]: 3100 ng/mL
distribution in coronal brain sections by MALDI IMS ([1]; mice administered niraparib): consistent concentrations distributed throughout the brain parenchyma with locally higher concentrations detected from tumor regions
CC50 [2]: 10 to 100 nM
MALDI IMS Brain Section Average, adjusted free concentration ([3]; Monkey 1): (10) ng/g
Pre-Dose Plasma, total concentration [3, 12]: BQL
Pre-Dose Plasma, adjusted free concentration ([3]; Monkey 1, Day 2): 10 ng/mL
Pre-Dose Plasma, total concentration ([3]; Monkey 1, Day 2): 28 ng/mL
Pre-Dose Plasma, adjusted free concentration ([3]; Monkey 1, Day 3): 18 ng/mL
Pre-Dose Plasma, total concentration ([3]; Monkey 1, Day 3): 49 ng/mL
Pre-Dose Plasma, adjusted free concentration ([3]; Monkey 1, Day 4): 22 ng/mL
Pre-Dose Plasma, total concentration ([3]; Monkey 1, Day 4): 59 ng/mL
Pre-Dose Plasma, adjusted free concentration ([3]; Monkey 1, Day 5): (26) ng/mL
Pre-Dose Plasma, total concentration ([3]; Monkey 1, Day 5): 72 ng/mL
Bulk Brain Homogenate, adjusted free concentration ([3]; Monkey 1): (14) ng/g
Terminal CSF ([3]; Monkey 1): 9 ng/mL
Terminal Plasma, adjusted free concentration ([3]; Monkey 1): (31) ng/mL
Terminal Plasma, total concentration ([3]; Monkey 1, at necropsy after 5 daily oral doses): 84 ng/mL
MALDI IMS Brain Section Average, adjusted free concentration ([3]; Monkey 2): (25) ng/g
Pre-Dose Plasma, total concentration [3, 13]: BQL
Pre-Dose Plasma, adjusted free concentration ([3]; Monkey 2, Day 2): 21 ng/mL
Pre-Dose Plasma, total concentration ([3]; Monkey 2, Day 2): 58 ng/mL
Pre-Dose Plasma, adjusted free concentration ([3]; Monkey 2, Day 3): 32 ng/mL
Pre-Dose Plasma, total concentration ([3]; Monkey 2, Day 3): 87 ng/mL
Pre-Dose Plasma, adjusted free concentration ([3]; Monkey 2, Day 4): 27 ng/mL
Pre-Dose Plasma, total concentration ([3]; Monkey 2, Day 4): 74 ng/mL
Pre-Dose Plasma, adjusted free concentration ([3]; Monkey 2, Day 5): (24) ng/mL
Pre-Dose Plasma, total concentration ([3]; Monkey 2, Day 5): 66 ng/mL
Bulk Brain Homogenate, adjusted free concentration ([3]; Monkey 2): (29) ng/g
Terminal CSF ([3]; Monkey 2): 25 ng/mL
Terminal Plasma, adjusted free concentration ([3]; Monkey 2): (160) ng/mL
Kp,uu,brain, times higher for niraparib compared to olaparib [3, 14]: 15 ×
detection and distribution in coronal brain sections by MALDI IMS [3, 14]: consistent concentrations distributed throughout the brain parenchyma
Kp uu ([3]; Monkey 2, from bulk brain homogenate and terminal plasma free concentrations, read-out: Kp, uu Brain/Plasma): 0.16
Kp uu ([3]; mean of Monkey 1 and 2, read-out: Mean Kp, uu Brain/Plasma): 0.3
Kp (P-gp (Mdr1-a); Brain:plasma (Kp) ratio): 3.7
Kp uu (P-gp (Mdr1-a); [15]): 0.87
Kp ([4]; P-gp/BCRP double knock-out rat): 6.3
Kp ([4]; control rat): 0.47
Kp uu ([4]; P-gp/BCRP double knock-out rat): 1.5
Kp uu ([4]; control rat): 0.1
Kp (BCRP (ABCG2); Brain:plasma (Kp) ratio): 0.64
Kp uu (BCRP (ABCG2); [15]): 0.15
increase of brain tissue concentrations ([5]; BCRP knockout rats vs control): < 2 fold
increase of brain tissue concentrations ([5]; Mdr1-a (P-gp) knockout rats vs control, iv bolus plus infusion, steady state): 9 fold
increase of brain tissue concentrations ([5]; Pgp/BCRP double knockout rats vs control): 14 fold
mean unbound concentration in Gd-nonenhancing tumor region ([6]; 200 mg, 3-5 hr cohort 1 (n=6)): 250.8 nM
mean unbound concentration in Gd-nonenhancing tumor region ([6]; 300 mg QD 4 days, 3-5 hr cohort (n=8), interim results): 340.9 nM
mean unbound concentration in Gd-nonenhancing tumor region ([6]; 300 mg QD 4 days, 8-12 hr cohort (n=3)): 331.9 nM
mean unbound concentration in Gd-nonenhancing tumor region ([6]; 300 mg, 3-5 hr cohort 1 (n=20)): 366.2 nM
mean unbound concentration in non-enhancing regions ([6]; 300 or 200 mg QD 4 days, 29 patients, further interim results): 258.2 nM
Kp (clinical; [16]): 7.89
Kp uu (clinical; [16]): 1.8
Kp (clinical; [17]): 4.27
Kp uu (clinical; [17]): 0.8
outcome of the 6 patients with ≥6 months follow-up ([7]; MGMT-unmethylated PK-responders, niraparib in addition to radiotherapy): four are in remission and two had a recurrence of tumor
PFS6 ([7]; niraparib with concurrent RT then maintenance, 11 patients, median follow-up 8.1 months): 64%
patients with thrombocytopenia related to niraparib ([8]; 6 initial patients enrolled in phase 2, niraparib with concurrent RT): Five of the 6
patients with Grade 3 treatment-related adverse event (ALT and AST elevation) ([8]; Phase 0, twelve patients, 300 mg QD 4 days): one patient
serious AEs after starting dose lowered to 200 mg ([8]; both phases): no serious AEs were observed thereafter
patients with treatment-related thrombocytopenia ([8]; expansion phase, two patients enrolled): two patients
tolerability [8]: well-tolerated, with low rates of grade 3+ toxicity
tolerability ([8]; listed as Niraparib): generally well-tolerated
thrombocytopenia cases deemed serious and life-threatening ([8]; of the 5 thrombocytopenia cases in phase 2): 3/5
fraction unbound (in vitro): 0.04
solubility (physchem): 700 to 1100 µg/mL (≈ 2180 to 3430 µM)
EC50 (PARP activity): 4 nM

Bulk Brain Homogenate Avg, adjusted free concentration ([1]; BM mice): 2 ng/g
Bulk Brain Homogenate Avg, total concentration ([1]; BM mice): 11 ng/g
Bulk Brain Homogenate Avg, adjusted free concentration ([1]; Control mice): 2 ng/g
Bulk Brain Homogenate Avg, total concentration ([1]; Control mice): 12 ng/g
Kp, uu Brain ([1]; Control mice, from bulk brain homogenate and terminal plasma free concentrations): 0.02
Kp uu at 2 h post final dose [1, 9]: 0.03
concentration at 2 h [1, 10]: 254 ng/mL
concentration at 2 h [1, 11]: 322 ng/mL
MALDI IMS Brain Section Average, total concentration ([3]; Monkey 1): BLQ
Pre-Dose Plasma, total concentration [3, 12]: BQL
Pre-Dose Plasma, adjusted free concentration ([3]; Monkey 1, Day 2): 8 ng/mL
Pre-Dose Plasma, total concentration ([3]; Monkey 1, Day 2): 27 ng/mL
Pre-Dose Plasma, adjusted free concentration ([3]; Monkey 1, Day 3): 8 ng/mL
Pre-Dose Plasma, total concentration ([3]; Monkey 1, Day 3): 26 ng/mL
Pre-Dose Plasma, adjusted free concentration ([3]; Monkey 1, Day 4): 10 ng/mL
Pre-Dose Plasma, total concentration ([3]; Monkey 1, Day 4): 33 ng/mL
Pre-Dose Plasma, adjusted free concentration ([3]; Monkey 1, Day 5): (10) ng/mL
Pre-Dose Plasma, total concentration ([3]; Monkey 1, Day 5): 33 ng/mL
Bulk Brain Homogenate, adjusted free concentration ([3]; Monkey 1): (2) ng/g
Bulk Brain Homogenate, total concentration ([3]; Monkey 1): 12 ng/g
Kp, uu Brain/Plasma ([3]; Monkey 1, from bulk brain homogenate and terminal plasma free concentrations): 0.02
MALDI IMS Brain Section Average, total concentration ([3]; Monkey 2): BLQ
Pre-Dose Plasma, total concentration [3, 13]: BQL
Pre-Dose Plasma, adjusted free concentration ([3]; Monkey 2, Day 2): 16 ng/mL
Pre-Dose Plasma, total concentration ([3]; Monkey 2, Day 2): 51 ng/mL
Pre-Dose Plasma, adjusted free concentration ([3]; Monkey 2, Day 3): 5 ng/mL
Pre-Dose Plasma, total concentration ([3]; Monkey 2, Day 3): 17 ng/mL
Pre-Dose Plasma, adjusted free concentration ([3]; Monkey 2, Day 4): 16 ng/mL
Pre-Dose Plasma, total concentration ([3]; Monkey 2, Day 4): 53 ng/mL
Pre-Dose Plasma, adjusted free concentration ([3]; Monkey 2, Day 5): (14) ng/mL
Pre-Dose Plasma, total concentration ([3]; Monkey 2, Day 5): 45 ng/mL
Bulk Brain Homogenate, adjusted free concentration ([3]; Monkey 2): (2) ng/g
Bulk Brain Homogenate, total concentration ([3]; Monkey 2): 11 ng/g
Kp, uu Brain/Plasma ([3]; Monkey 2, from bulk brain homogenate and terminal plasma free concentrations): 0.03
detection and distribution in coronal brain sections by MALDI IMS [3, 14]: not detected
Mean Kp, uu Brain/Plasma ([3]; mean of Monkey 1 and 2): 0.02
Compound: O=C(c1cc(Cc2n[nH]c(=O)c3ccccc23)ccc1F)N1CCN(C(=O)C2CC2)CC1 [olaparib]
Terminal CSF ([3]; Monkey 1): 13 ng/mL
Terminal Plasma, adjusted free concentration ([3]; Monkey 1): (99) ng/mL
Terminal CSF ([3]; Monkey 2): 6 ng/mL
Terminal Plasma, adjusted free concentration ([3]; Monkey 2): (78) ng/mL
